Measurements: patent US11780826B2 (Amgen Inc., priority 2017, dated 2023)

test system: Bovine cardiac myofibrils; assay: In vitro model of dose-dependent myofibril ATPase modulation (AC1.4, pyruvate kinase/lactate dehydrogenase-coupled ATPase assay at pCa25); format: biochemical; conditions: concentration at which ATPase activity was 1.4-fold higher than the bottom of the dose curve, mean of a minimum of two independent tests
Procedure, shortened: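 Absorbance at 340 nm tracked ATP hydrolysis through pyruvate kinase/lactate dehydrogenase coupling (0.5 mM NADH, 1.5 mM PEP). Myofibrils from detergent-homogenized bovine heart, 1 mM ATP, pH 6.80, EGTA/CaCl2 buffering. Dose-response curves fitted with a four-parameter Hill equation.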

Row | AC1.4 [µM] | Compound
1 | 0.4299 | O=C(NCc1ccc(C(F)(F)F)cc1)[C@H]1CCCN1C(=O)[C@H]1CCCN(S(=O)(=O)N2CC(n3ccnn3)C2)C1 [Example 203, 1-(((3S)-1-((3-(1H-l,2,3-triazol-1-yl)-1-azetidinyl)sulfonyl)-3-piperidinyl)carbonyl)-N-(4-(trifluoromethyl)benzyl)-D-prolinamide]
2 | 0.4305 | CC[C@H](NC(=O)[C@H]1CCCN1C(=O)c1cccc(S(=O)(=O)N2CC(C#N)C2)c1)c1ccc(C(F)(F)F)cc1F [Example 204, 1-(3-((3-cyano-1-azetidinyl)sulfonyl)benzoyl)-N-((1S)-1-(2-fluoro-4-(trifluoromethyl)phenyl)propyl)-D-prolinamide]
3 | 0.4322 | C[C@@H](NC(=O)[C@H]1CCCN1C(=O)c1cccc(S(=O)(=O)N2CC(C#N)C2)c1)c1cc(F)cc(F)c1 [Example 205, 1-(3-((3-cyano-1-azetidinyl)sulfonyl)benzoyl)-N-((1R)-1-(3,5-difluorophenyl)ethyl)-D-prolinamide]
4 | 0.4338 | N#CC1CN(S(=O)(=O)N2CCC[C@H](C(=O)N3CCC[C@@H]3C(=O)NCc3cccc(Cl)c3Cl)C2)C1 [Example 206, 1-(((3S)-1-((3-cyano-1-azetidinyl)sulfonyl)-3-piperidinyl)carbonyl)-N-(2,3-dichlorobenzyl)-D-prolinamide]
5 | 0.4436 | CS(=O)(=O)c1cccc(C(=O)N2[C@@H](C(=O)N[C@@H](c3ccc(Cl)cc3F)C3COC3)C[C@H]3C[C@H]32)c1 [Example 207, (1R,3R,5R)-N-((R)-(4-chloro-2-fluorophenyl)(3-oxetanyl)methyl)-2-(3-(methylsulfonyl)benzoyl)-2-azabicyclo[3.1.0]hexane-3-carboxamide]
6 | 0.4457 | CC(O)(c1cccc(C(=O)N2CCCC[C@@H]2C(=O)N[C@@H](c2ccc(C(F)(F)F)cc2F)C2CC2)c1)C(F)(F)F (stereo partly drawn) [Example 208, (2R)-N-((R)-cyclopropyl(2-fluoro-4-(trifluoromethyl)phenyl)methyl)-1-(3-(-1,1,1-trifluoro-2-hydroxy-2-propanyl)benzoyl)-2-piperidinecarboxamide]
7 | 0.4473 | C[C@H](C(=O)N[C@H](C)c1ccc(C(F)(F)F)cc1F)N(C)C(=O)[C@H]1CCCN(S(=O)(=O)N2CC(C#N)C2)C1 [Example 209, (3S)-1-((3-cyano-1-azetidinyl)sulfonyl)-N-((2R)-1-(((1R)-1-(2-fluoro-4-(trifluoromethyl)phenyl)ethyl)amino)-1-oxo-2-propanyl)-N-methyl-3-piperidinecarboxamide]
8 | 0.4487 | O=C(NCc1ccc(C(F)(F)F)cc1)[C@H]1CCCN1C(=O)[C@H]1CCCN(S(=O)(=O)N2CC(OCc3ccc(Cl)cc3)C2)C1 [Example 210, 1-(((3S)-1-((3-((4-chlorobenzyl)oxy)-1-azetidinyl)sulfonyl)-3-piperidinyl)carbonyl)-N-(4-(trifluoromethyl)benzyl)-D-prolinamide]
9 | 0.4488 | O=C(N[C@@H](c1ccc(C(F)(F)F)cc1F)C1CC1)[C@H]1C[C@H]2C[C@H]2N1C(=O)c1cccc(S(=O)(=O)C2CC2)c1 [Example 211, (1R,3R,5R)-N-((R)-cyclopropyl(2-fluoro-4-(trifluoromethyl)phenyl)methyl)-2-(3-(cyclopropylsulfonyl)benzoyl)-2-azabicyclo[3.1.0]hexane-3-carboxamide]
10 | 0.4557 | CCS(=O)(=O)c1cccc(C(=O)N2CCC[C@@H]2C(=O)N[C@@H](c2ccc(C(F)(F)F)cc2F)C2CC2)c1 [Example 212, N-((R)-cyclopropyl(2-fluoro-4-(trifluoromethyl)phenyl)methyl)-1-(3-(ethylsulfonyl)benzoyl)-D-prolinamide]
11 | 0.4603 | CC(C)(C)c1cccc(C(=O)N2[C@@H](C(=O)N[C@@H](c3ccc(C(F)(F)F)cc3F)C3COC3)C[C@H]3C[C@H]32)c1 [Example 213, (1R,3R,5R)-N-((R)-(2-fluoro-4-(trifluoromethyl)phenyl)(3-oxetanyl)methyl)-2-(3-(2-methyl-2-propanyl)benzoyl)-2-azabicyclo[3.1.0]hexane-3-carboxamide]
12 | 0.4666 | CS(=O)(=O)c1ccc(C(=O)N2CCC[C@@H]2C(=O)N[C@@H](c2cc(F)c(Cl)cc2F)C2CC2)cn1 [Example 215, N-((R)-(4-chloro-2,5-difluorophenyl)(cyclopropyl)methyl)-1-((6-(methylsulfonyl)-3-pyridinyl)carbonyl)-D-prolinamide]
13 | 0.4746 | N#CC1CN(S(=O)(=O)N2CCC[C@H](C(=O)N3C[C@H](F)C[C@@H]3C(=O)NCc3ccc(C(F)(F)F)cc3)C2)C1 [Example 216, (4R)-1-(((3S)-1-((3-cyano-1-azetidinyl)sulfonyl)-3-piperidinyl)carbonyl)-4-fluoro-N-(4-(trifluoromethyl)benzyl)-D-prolinamide]
14 | 0.4751 | CCNc1ccccc1C(=O)N1[C@@H](C(=O)N[C@@H](c2ccc(C(F)(F)F)cc2F)C2COC2)C[C@H]2C[C@H]21 [Example 217, (1R,3R,5R)-2-(2-(ethylamrno)benzoyl)-N-((R)-(2-fluoro-4-(trifluoromethyl)phenyl)(3-oxetanyl)methyl)-2-azabicyclo[3.1.0]hexane-3-carboxamide]

The next lines start with the compound.

Row | Compound | AC1.4 [µM]
15 | N#CC1CN(S(=O)(=O)N2CC3CC2[C@@H](C(=O)N2CCC[C@@H]2C(=O)NCc2ccc(C(F)(F)F)cc2F)C3)C1 (stereo partly drawn) [Example 189, 1-((2-((3-cyano-1-azetidinyl)sulfonyl)-2-azabicyclo[2.2.1]hept-6-yl)carbonyl)-N-(2-fluoro-4-(trifluoromethyl)benzyl)-D-prolinamide] | 0.3524
16 | N#CC1CN(S(=O)(=O)c2cccc(C(=O)N3CCC[C@@H]3C(=O)NCc3cccc(Cl)c3)c2)C1 [Example 190, N-(3-chlorobenzyl)-1-((3-((3-cyano-1-azetidinyl)sulfonyl)phenyl)carbonyl)-D-prolinamide] | 0.3569
17 | Cc1ccc(CNC(=O)[C@H]2CCCN2C(=O)[C@H]2CCCN(S(=O)(=O)N3CC(C#N)C3)C2)c(Cl)c1 [Example 191, N-(2-chloro-4-methylbenzyl)-1-(((3S)-1-((3-cyano-1-azetidinyl)sulfonyl)-3-piperidinyl)carbonyl)-D-prolinamide] | 0.3593
18 | N#C[C@H]1CCN(S(=O)(=O)N2CCC[C@H](C(=O)N3CCC[C@@H]3C(=O)NCc3ccc(C(F)(F)F)cc3)C2)C1 [Example 192, 1-(((3S)-1-(((3S)-3-cyano-1-pyrrolidinyl)sulfonyl)-3-piperidinyl)carbonyl)-N-(4-(trifluoromethyl)benzyl)-D-prolinamide] | 0.3628
19 | CS(=O)(=O)c1cccc(C(=O)N2[C@@H](C(=O)N[C@@H](c3ccc(C(F)(F)F)c(F)c3)C3COC3)C[C@H]3C[C@H]32)c1 [Example 193, (1R,3R,5R)-N-((R)-(3-fluoro-4-(trifluoromethyl)phenyl)(3-oxetanyl)methyl)-2-(3-(methylsulfonyl)benzoyl)-2-azabicyclo[3.1.0]hexane-3-carboxamide] | 0.3676
20 | NS(=O)(=O)c1cccc(C(=O)N2CCCC[C@@H]2C(=O)N[C@@H](c2cc(F)c(Cl)cc2F)C2CC2)c1 [Example 194, (2R)-N-((R)-(4-chloro-2,5-difluorophenyl)(cyclopropyl)methyl)-1-(3-sulfamoylbenzoyl)-2-piperidinecarboxamide] | 0.385
21 | CC[C@H](NC(=O)[C@H]1CCCN1C(=O)[C@H]1CCCN(S(=O)(=O)N2CC(C#N)C2)C1)c1ccc(C(F)(F)F)cc1 [Example 195, 1-(((3S)-1-((3-cyano-1-azetidinyl)sulfonyl)-3-piperidinyl)carbonyl)-N-((1S)-1-(4-(trifluoromethyl)phenyl)propyl)-D-prolinamide] | 0.3859
22 | C#CC1(O)CN(S(=O)(=O)N2CCC[C@H](C(=O)N3CCC[C@@H]3C(=O)NCc3ccc(C(F)(F)F)cc3F)C2)C1 [Example 196, 1 (((3S)-1-((3-ethynyl-3-hydroxy-1-azetidinyl)sulfonyl)-3-piperidinyl)carbonyl)-N-(2-fluoro-4-(trifluoromethyl)benzyl)-D-prolinamide] | 0.3906
23 | CS(=O)(=O)c1cccc(C(=O)N2[C@@H](C(=O)N[C@@H](c3cc(F)c(C(F)F)cc3F)C3CC3)C[C@H]3C[C@H]32)c1 [Example 197, (1R,3R,5R)-N-((R)-cyclopropyl(4-(difluoromethyl)-2,5-difluorophenyl)methyl)-2-(3-(methylsulfonyl)benzoyl)-2-azabicyclo[3.1.0]hexane-3-carboxamide] | 0.3963
24 | N#CC1CN(S(=O)(=O)N2CCC[C@H](C(=O)N3CCC[C@@H]3C(=O)N[C@@H](c3ccc(C(F)(F)F)cc3)C(F)(F)F)C2)C1 [Example 198, 1-(((3S)-1-((3-cyano-1-azetidinyl)sulfonyl)-3-piperidinyl)carbonyl)-N-((1S)-2,2,2-trifluoro-1-(4-(trifluoromethyl)phenyl)ethyl)-D-prolinamide] | 0.4034
25 | O=C(NCc1ccc(C(F)(F)F)cc1F)[C@H]1CCCN1C(=O)[C@H]1CCCN(S(=O)(=O)N2CC(O)(C3CC3)C2)C1 [Example 199, 1-(((3S)-1-((3-cyclopropyl-3-hydroxy-1-azetidinyl)sulfonyl)-3-piperidinyl)carbonyl)-N-(2-fluoro-4-(trifluoromethyl)benzyl)-D-prolinamide] | 0.4078
26 | CS(=O)(=O)c1cccc(C(=O)N2C[C@@H](F)C[C@@H]2C(=O)N[C@@H](c2cc(F)c(Cl)cc2F)C2CC2)c1 [Example 201, (4S)-N-((R)-(4-chloro-2,5-difluorophenyl)(cyclopropyl)methyl)-4-fluoro-1-(3-(methylsulfonyl)benzoyl)-D-prolinamrde] | 0.411
27 | CS(=O)(=O)c1ccnc(C(=O)N2[C@@H](C(=O)N[C@@H](c3cc(F)c(Cl)cc3F)C3CC3)C[C@H]3C[C@H]32)c1 [Example 202, (1R,3R,5R)-N-((R)-(4-chloro-2,5-difluorophenyl)(cyclopropyl)methyl)-2-((4-(methylsulfonyl)-2-pyridinyl)carbonyl)-2-azabicyclo[3.1.0]hexane-3-carboxamide] | 0.4116
